Patent US10485844B2, “Methods for treating severe atopic dermatitis by administering an IL-4R inhibitor” (Regeneron Pharmaceuticals, Inc., priority 2016, dated 2019)

Test system: CYP3A
Assay: Effect of dupilumab on PK of CYP substrate cocktail: midazolam
Conditions: oral cocktail before (Day 1) and during dupilumab 300 mg weekly (Day 36); n = 13
Procedure: Subcutaneous dupilumab was administered as a 600 mg loading dose on Day 8, followed by a weekly dose of 300 mg from Day 15 to Day 50. PK parameters included Geometric Mean Ratios (GMR) of AUClast (area under the plasma concentration-time curve from time zero to the time of the last quantifiable concentration) and Cmax (maximum observed plasma concentration) measured at Day 1 and Day 36, while efficacy assessments included changes in Eczema Area and Severity Index (EASI) scores (scale 0-72).

`Cc1ncc2n1-c1ccc(Cl)cc1C(c1ccccc1F)=NC2` [midazolam, reference compound] was tested. Which “Geometric Mean Ratio (Day 36/Day 1), AUClast” value did it give?
The value was 0.98.

And the “Geometric Mean Ratio (Day 36/Day 1), Cmax” value?
Its value is 1.13.
